What was measured:
Conditions in all cases: average where tested multiple times
BCAT2 [1] = molecular target: T1, BCAT2 (Homo sapiens, UniProt O15382); assay: BCAT2 in vitro enzyme inhibition assay (resazurin/diaphorase-coupled fluorescence); format: biochemical
T1 sequence (O15382 28-392): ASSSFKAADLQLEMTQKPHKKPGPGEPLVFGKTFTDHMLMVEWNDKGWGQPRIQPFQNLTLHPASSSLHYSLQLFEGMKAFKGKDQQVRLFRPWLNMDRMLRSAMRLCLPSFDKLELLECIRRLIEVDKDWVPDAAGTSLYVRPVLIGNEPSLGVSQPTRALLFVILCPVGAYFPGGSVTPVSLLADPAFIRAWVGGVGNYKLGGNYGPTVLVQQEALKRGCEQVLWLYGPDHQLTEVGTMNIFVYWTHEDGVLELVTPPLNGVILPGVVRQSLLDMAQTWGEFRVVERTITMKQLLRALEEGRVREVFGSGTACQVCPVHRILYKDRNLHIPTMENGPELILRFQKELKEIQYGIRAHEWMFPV
In short: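 Coupled fluorescence readout: glutamate formed from L-leucine/α-ketoglutarate transamination drives GDH/NAD/diaphorase reduction of resazurin (Ex 540/Em 590). Human BCAT2 was first exposed 1 h at room temperature to compound, top final 100 μM in 3-fold, 10-point series; substrate reaction ran 1 h before SDS quench, in technical duplicate with DMSO max and enzyme-free min controls.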

BCAT2 [2] = molecular target: T1, BCAT2; assay: BCAT2 in vitro cell inhibition using engineered A549 cells (KMV cell assay, 13C6-KMV by LC-MS/MS); format: cell-based; set-up: The result was an engineered A549 cell line that expressed endogenous BCAT2; endogenous in cells; host or cells: A549 cells with MUT and BCAT1 knocked out by CRISPR/CAS9
hBCAT1 = molecular target: T2, hBCAT1 (Homo sapiens, UniProt P54687); assay: BCAT1 in vitro enzyme inhibition assay (resazurin/diaphorase-coupled fluorescence); format: biochemical
T2 sequence (P54687 1-386): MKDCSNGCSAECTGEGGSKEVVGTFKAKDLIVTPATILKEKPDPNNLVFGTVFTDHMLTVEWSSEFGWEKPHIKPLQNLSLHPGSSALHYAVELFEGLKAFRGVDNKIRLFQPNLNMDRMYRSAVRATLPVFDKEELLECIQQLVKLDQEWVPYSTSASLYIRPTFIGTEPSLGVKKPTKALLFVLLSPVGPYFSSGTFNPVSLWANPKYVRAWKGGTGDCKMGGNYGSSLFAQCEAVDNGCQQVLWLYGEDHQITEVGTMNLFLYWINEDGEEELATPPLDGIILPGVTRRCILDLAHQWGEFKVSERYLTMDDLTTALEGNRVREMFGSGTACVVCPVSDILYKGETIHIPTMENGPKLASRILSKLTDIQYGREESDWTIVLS
In short: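 Human BCAT1 activity read by resazurin/diaphorase-coupled fluorescence. Compounds added from 50× DMSO stocks at 1:50, giving 10-point 3-fold titrations from 100 μM top final concentration. Run in technical duplicate; repeat tests averaged.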

Row | SMILES | IC50 (BCAT2 [1]) [nM] | IC50 (BCAT2 [2]) [nM] | IC50 (hBCAT1) [nM]
1 | O=C(N[C@H]1CCC[C@@H](n2c(-c3ccccc3F)nc3cnc(-c4ncccn4)cc32)[C@@H]1O)c1ncc(Cl)s1 [Example 245, 5-chloro-N-((1S,2R,3R)-3-(2-(2-fluorophenyl)-6-(pyrimidin-2-yl)-1H-imidazo[4,5-c]pyridin-1-yl)-2-hydroxycyclohexyl)thiazole-2-carboxamide] | ≤ 100 | ≤ 100 | < 500
2 | Cc1cnn(-c2cc3c(cn2)nc(-c2ccccc2F)n3[C@@H]2CCC[C@H](NC(=O)c3ncc(Cl)s3)[C@H]2O)n1 [Example 246, 5-chloro-N-((1S,2R,3R)-3-(2-(2-fluorophenyl)-6-(4-methyl-2H-1,2,3-triazol-2-yl)-1H-imidazo[4,5-c]pyridin-1-yl)-2-hydroxycyclohexyl)thiazole-2-carboxamide] | ≤ 100 | ≤ 100 | < 500
3 | O=C(N[C@H]1CCC[C@@H](n2c(-c3ccccc3F)nc3cnc(-c4ncco4)cc32)[C@@H]1O)c1ncc(Cl)s1 [Example 248, 5-chloro-N-((1S,2R,3R)-3-(2-(2-fluorophenyl)-6-(oxazol-2-yl)-1H-imidazo[4,5-c]pyridin-1-yl)-2-hydroxycyclohexyl)thiazole-2-carboxamide] | ≤ 100 | ≤ 100 | < 500
4 | CC(C)Cc1nc2cnc(-c3nc[nH]n3)cc2n1[C@@H]1CCC[C@H](NC(=O)c2ncc(Cl)s2)[C@H]1O [Example 250, 5-chloro-N-((1S,2R,3R)-2-hydroxy-3-(2-isobutyl-6-(1H-1,2,4-triazol-3-yl)-1H-imidazo[4,5-c]pyridin-1-yl)cyclohexyl)thiazole-2-carboxamide] | ≤ 100 | ≤ 100 | < 500
5 | O=C(N[C@H]1C[C@H](O)C[C@@H](n2c(-c3ccccc3F)nc3cnc(-c4nc[nH]n4)cc32)C1)c1ccc(Cl)s1 [Example 254, 5-chloro-N-((1R,3S,5S)-3-(2-(2-fluorophenyl)-6-(1H-1,2,4-triazol-3-yl)-1H-imidazo[4,5-c]pyridin-1-yl)-5-hydroxycyclohexyl)thiophene-2-carboxamide] | ≤ 100 | ≤ 100 | < 500
6 | CC(C)Cc1nc2cnc(-c3nc[nH]n3)cc2n1[C@@H]1C[C@@H](O)C[C@H](NC(=O)c2ncc(Cl)s2)C1 [Example 256, 5-chloro-N-((1R,3S,5S)-3-hydroxy-5-(2-isobutyl-6-(1H-1,2,4-triazol-3-yl)-1H-imidazo[4,5-c]pyridin-1-yl)cyclohexyl)thiazole-2-carboxamide] | ≤ 100 | ≤ 100 | < 500
7 | O=C(N[C@H]1C[C@H](O)C[C@@H](n2c(-c3ccccc3F)nc3cnc(-c4ncco4)cc32)C1)c1ncc(Cl)s1 [Example 260, 5-chloro-N-((1R,3S,5S)-3-(2-(2-fluorophenyl)-6-(oxazol-2-yl)-1H-imidazo[4,5-c]pyridin-1-yl)-5-hydroxycyclohexyl)thiazole-2-carboxamide] | ≤ 100 | ≤ 100 | < 500
8 | CC(C)Cc1nc2cnc(-c3ccccn3)cc2n1[C@H]1C[C@@H](NC(=O)c2ncc(Cl)s2)CN(C)C1 [Example 262, 5-chloro-N-((3R,5S)-5-(2-isobutyl-6-(pyridin-2-yl)-1H-imidazo[4,5-c]pyridin-1-yl)-1-methylpiperidin-3-yl)thiazole-2-carboxamide] | 100 to 500 | > 1000 | > 5000
9 | CN1C[C@H](NC(=O)c2ccc(Cl)s2)C[C@H](n2c(-c3ccccc3F)nc3cnc(-c4nc[nH]n4)cc32)C1 [Example 264, 5-chloro-N-((3R,5S)-5-(2-(2-fluorophenyl)-6-(1H-1,2,4-triazol-3-yl)-1H-imidazo[4,5-c]pyridin-1-yl)-1-methylpiperidin-3-yl)thiophene-2-carboxamide] | ≤ 100 | ≤ 100 | < 500
10 | O=C(N[C@H]1CCC[C@@H](n2c(-c3ccccc3F)nc3cnc(O[C@H]4CCOC4)cc32)C1)c1ncc(Cl)s1 [Example 267, 5-chloro-N-((1S,3R)-3-(2-(2-fluorophenyl)-6-(((S)-tetrahydrofuran-3-yl)oxy)-1H-imidazo[4,5-c]pyridin-1-yl)cyclohexyl)thiazole-2-carboxamide] | 100 to 500 | 100 to 500 | < 500
11 | Nc1cc2c(cn1)nc(-c1ccccc1F)n2[C@@H]1C[C@@H](O)C[C@H](NC(=O)c2ncc(Cl)s2)C1 [Example 270, N-((1R,3S,5S)-3-(6-amino-2-(2-fluorophenyl)-1H-imidazo[4,5-c]pyridin-1-yl)-5-hydroxycyclohexyl)-5-chlorothiazole-2-carboxamide] | ≤ 100 | > 1000 | < 500
12 | O=C(N[C@H]1C[C@H](O)C[C@@H](n2c(-c3ccccc3F)nc3cnccc32)C1)c1ncc(Cl)s1 [Example 272, 5-chloro-N-((1R,3S,5S)-3-(2-(2-fluorophenyl)-1H-imidazo[4,5-c]pyridin-1-yl)-5-hydroxycyclohexyl)thiazole-2-carboxamide] | ≤ 100 | 500 to 1000 | 500 to 1000

Next, values leading:

Row | IC50 (BCAT2 [1]) [nM] | IC50 (BCAT2 [2]) [nM] | IC50 (hBCAT1) [nM] | SMILES
13 | ≤ 100 | 500 to 1000 | < 500 | CC(C)Cc1nc2cnc(-n3cc(F)cn3)cc2n1[C@@H]1CCC[C@H](NC(=O)c2ncc(Cl)s2)[C@H]1O [Example 232, 5-chloro-N-((1S,2R,3R)-3-(6-(4-fluoro-1H-pyrazol-1-yl)-2-isobutyl-1H-imidazo[4,5-c]pyridin-1-yl)-2-hydroxycyclohexyl)thiazole-2-carboxamide]
14 | ≤ 100 | 500 to 1000 | 1000 to 5000 | CO[C@@H]1[C@@H](NC(=O)c2ncc(Cl)s2)CCC[C@H]1n1c(-c2ccccc2F)nc2cnc(-c3nc[nH]n3)cc21 [Example 234, 5-chloro-N-((1S,2R,3R)-3-(2-(2-fluorophenyl)-6-(1H-1,2,4-triazol-3-yl)-1H-imidazo[4,5-c]pyridin-1-yl)-2-methoxycyclohexyl)thiazole-2-carboxamide]
15 | ≤ 100 | ≤ 100 | < 500 | CC(C)Cc1nc2cnc(-c3ccccn3)cc2n1[C@@H]1CCC[C@H](NC(=O)c2ncc(Cl)s2)[C@H]1O [Example 235, 5-chloro-N-((1S,2R,3R)-2-hydroxy-3-(2-isobutyl-6-(pyridin-2-yl)-1H-imidazo[4,5-c]pyridin-1-yl)cyclohexyl)thiazole-2-carboxamide]
16 | ≤ 100 | ≤ 100 | < 500 | Cc1coc(-c2cc3c(cn2)nc(-c2ccccc2F)n3[C@@H]2CCC[C@H](NC(=O)c3ncc(Cl)s3)[C@H]2O)n1 [Example 238, 5-chloro-N-((1S,2R,3R)-3-(2-(2-fluorophenyl)-6-(4-methyloxazol-2-yl)-1H-imidazo[4,5-c]pyridin-1-yl)-2-hydroxycyclohexyl)thiazole-2-carboxamide]
17 | ≤ 100 | ≤ 100 | < 500 | O=C(N[C@H]1CCC[C@@H](n2c(-c3ccccc3F)nc3cnc(-c4ccn[nH]4)cc32)[C@@H]1O)c1ncc(Cl)s1 [Example 240, 5-chloro-N-((1S,2R,3R)-3-(2-(2-fluorophenyl)-6-(1H-pyrazol-5-yl)-1H-imidazo[4,5-c]pyridin-1-yl)-2-hydroxycyclohexyl)thiazole-2-carboxamide]
18 | ≤ 100 | ≤ 100 | < 500 | O=C(N[C@H]1CCC[C@@H](n2c(-c3ccccc3F)nc3cnc(-c4ccccn4)cc32)[C@@H]1O)c1ncc(Cl)s1 [Example 242, 5-chloro-N-((1S,2R,3R)-3-(2-(2-fluorophenyl)-6-(pyridin-2-yl)-1H-imidazo[4,5-c]pyridin-1-yl)-2-hydroxycyclohexyl)thiazole-2-carboxamide]
19 | ≤ 100 | ≤ 100 | < 500 | Cc1cnn(-c2cc3c(cn2)nc(CC(C)C)n3[C@@H]2CCC[C@H](NC(=O)c3ncc(Cl)s3)[C@H]2O)n1 [Example 243, 5-chloro-N-((1S,2R,3R)-2-hydroxy-3-(2-isobutyl-6-(4-methyl-2H-1,2,3-triazol-2-yl)-1H-imidazo[4,5-c]pyridin-1-yl)cyclohexyl)thiazole-2-carboxamide]

Source: patent publication US20260159512A1, “BCAT2 INHIBITORS” (AGIOS PHARMACEUTICALS, INC., priority 2021, published 2026)
